Measurements as given in patent US11147272B2, “Pyridone compounds and agricultural and horticultural fungicides comprising the same as active ingredients” (MITSUI CHEMICALS AGRO, INC., priority 2017, dated 2021).

Assays:
Magnaporthe grisea = experiment: whole plant or invertebrate; format: in vivo; details: for Test A control value class: class of control value
Alternaia brassicicola = experiment: Test Example C: Alternaria sooty spot on cabbage; format: in vivo; details: for Test C control value class: class of control value
From the text: Seeds of a test plant (cabbage variety: Shikidori) were planted and cultivated until the cotyledons extended.
<Control Value> Control value=100{1−(n/3)}

Puccinia recondita = experiment: Test Example E: Brown rust on wheat; format: in vivo; details: for Test E control value class: class of control value
Phytophthora infestans = experiment: whole plant or invertebrate; format: in vivo; details: for Test F control value class: class of control value
Botrytis cinerea = experiment: Test Example B: Gray mold on tomato; details: for Test B control value class: class of control value
Experimental: Seeds of a test plant (tomato variety: Oogata Fukuju) were planted and cultivated until three to five first leaves (true leaves) appeared. In the test, the inventive compounds were dissolved into dimethyl sulfoxide-methanol mixture solution (volume ratio: 9/1), and the resultant solutions were diluted with well water to a concentration of 250 ppm to obtain the drug solutions. The drug solutions were sprayed to the test plant (2.5 ml/pot). After the drug solutions dried, a conidial suspension (4-8×10^5 conidia/ml) of Botrytis cinerea was inoculated to the plant by spraying. After the inoculation, the plant was kept in a mist chamber at room temperature of 20 to 23° C. for about 48 hours to promote the onset of disease. The degrees of disease development were investigated 2 to 3 days after the inoculation, and the effectiveness of the drug solutions was evaluated.
In Test Examples described above, the degrees of disease development were evaluated in increments of 0.05 from 0 (as no incidence of disease) to 3 (as the degree of disease development in an untreated plant group). Further, control values were calculated using the following equation based on the degree of disease development.
n=Degree of disease development in each treated group
In the table, H: more than 50% control value, L: 50% or less control value, and nt: not tested.

Plasmopara viticola = experiment: Test Example G: Downy mildew on vine; details: for Test G control value class: Downy mildew on vine (Neomuscat), 2.5 ml/pot, assessed 7 to 10 days after inoculation
[1] = system: Colletotrichum orbiculare; experiment: Test Example H: Anthracnose on cucumber; details: for Test H control value class: Anthracnose on cucumber (Sagami Hanjiro), 2.5 ml/pot, assessed 6 to 10 days after inoculation
[2] = system: Blumeria graminis f. sp. hordei; experiment: Test Example D: Powdery mildew on barley; details: for Test D control value class: class of control value
[3] = Alternaria sooty spot on cabbage

SMILES: CCn1c(-c2c(F)cc(F)cc2F)c(C(O)C(C)C)cc(Cl)c1=O (centres unmarked) [compound 64]
- Test A control value class (Magnaporthe grisea; Blast on rice): H (more than 50% control value)
- Test C control value class (Alternaia brassicicola; [3]): H (more than 50% control value)
- Test E control value class (Puccinia recondita; Brown rust on wheat): H (more than 50% control value)
- Test F control value class (Phytophthora infestans; Late blight on tomato): L (50% or less control value)
- Test B control value class (Botrytis cinerea; Gray mold on tomato): H (more than 50% control value)
- Test G control value class (Plasmopara viticola; 250 ppm spray): H (more than 50% control value)
- Test H control value class ([1]; 250 ppm spray): H (more than 50% control value)
- Test D control value class ([2]; Powdery mildew on barley): H (more than 50% control value)

SMILES: CCn1c(-c2c(F)cc(F)cc2F)c(C(O)C(F)(F)F)cc(Cl)c1=O (centres unmarked) [Compound No. 515, 3-chloro-1-ethyl-5-(2,2,2-trifluoro-1-hydroxyethyl)-6-(2,4,6-trifluorophenyl)pyridin-2(1H)-one]
- pest or weed control at 250 ppm (Magnaporthe grisea; Pyricularia oryzae, in Oryza sativa, read-out: Test A control value): > 50%
- pest or weed control at 250 ppm (Alternaia brassicicola; topical, 250 ppm drug solution sprayed on test plant): < 50%
- pest or weed control at 250 ppm (Puccinia recondita; Puccinia recondita, topical, 250 ppm drug solution sprayed on test plant): > 50%
- pest or weed control at 250 ppm (Phytophthora infestans; Phytophthora infestans, in Solanum lycopersicum, topical, read-out: Test F control value): < 50%
- pest or weed control at 250 ppm (Botrytis cinerea; Botrytis cinerea, in Solanum lycopersicum, topical, read-out: Test B control value): > 50%
- pest or weed control at 250 ppm (Plasmopara viticola; Plasmopara viticola, topical, 168 h, read-out: Test G control value): > 50%
- pest or weed control at 250 ppm ([1]; Colletotrichum orbiculare, in Cucumis sativus, topical, 144 h, read-out: Test H control value): > 50%
- pest or weed control at 250 ppm ([2]; Blumeria graminis, in Hordeum vulgare, topical, read-out: Test D control value): < 50%

SMILES: CCn1c(-c2c(F)cc(OC)cc2F)c(C(C)(C)OC)cc(Cl)c1=O [compound 113]
- Test A control value class (Magnaporthe grisea; Blast on rice): H (more than 50% control value)
- Test C control value class (Alternaia brassicicola; [3]): H (more than 50% control value)
- Test E control value class (Puccinia recondita; Brown rust on wheat): H (more than 50% control value)
- Test F control value class (Phytophthora infestans; Late blight on tomato): L (50% or less control value)
- Test B control value class (Botrytis cinerea; Gray mold on tomato): H (more than 50% control value)
- Test G control value class (Plasmopara viticola; 250 ppm spray): L (50% or less control value)
- Test H control value class ([1]; 250 ppm spray): H (more than 50% control value)
- Test D control value class ([2]; Powdery mildew on barley): L (50% or less control value)

SMILES: CCn1c(-c2c(F)cc(F)cc2F)c(C(Cl)C(C)(C)C)cc(Cl)c1=O (racemic) [compound 172]
- Test A control value class (Magnaporthe grisea; Blast on rice): H (more than 50% control value)
- Test C control value class (Alternaia brassicicola; [3]): H (more than 50% control value)
- Test E control value class (Puccinia recondita; Brown rust on wheat): H (more than 50% control value)
- Test F control value class (Phytophthora infestans; Late blight on tomato): H (more than 50% control value)
- Test B control value class (Botrytis cinerea; Gray mold on tomato): H (more than 50% control value)
- Test G control value class (Plasmopara viticola; 250 ppm spray): H (more than 50% control value)
- Test H control value class ([1]; 250 ppm spray): H (more than 50% control value)
- Test D control value class ([2]; Powdery mildew on barley): H (more than 50% control value)

SMILES: CCn1c(-c2ccc(F)cc2F)c(CC(C)C)ccc1=O [compound 117]
- Test A control value class (Magnaporthe grisea; Blast on rice): H (more than 50% control value)
- Test C control value class (Alternaia brassicicola; [3]): H (more than 50% control value)
- Test E control value class (Puccinia recondita; Brown rust on wheat): H (more than 50% control value)
- Test F control value class (Phytophthora infestans; Late blight on tomato): L (50% or less control value)
- Test B control value class (Botrytis cinerea; Gray mold on tomato): H (more than 50% control value)
- Test G control value class (Plasmopara viticola; 250 ppm spray): L (50% or less control value)
- Test H control value class ([1]; 250 ppm spray): H (more than 50% control value)
- Test D control value class ([2]; Powdery mildew on barley): H (more than 50% control value)

SMILES: CCc1cc(Br)c(=O)n(C)c1-c1ccc(OC)cc1Br [compound 358]
- Test A control value (Magnaporthe grisea; Blast on rice, control value class): L (50% or less control value)
- Test C control value (Alternaia brassicicola; Alternaria sooty spot on cabbage, control value class): L (50% or less control value)
- Test E control value (Puccinia recondita; Brown rust on wheat, control value class): H (more than 50% control value)
- Test F control value (Phytophthora infestans; Late blight on tomato, control value class): L (50% or less control value)
- Test B control value (Botrytis cinerea; Gray mold on tomato, control value class): H (more than 50% control value)
- Test G control value (Plasmopara viticola; Downy mildew on vine, 250 ppm spray, 7 to 10 days after inoculation): L (50% or less control value)
- Test H control value ([1]; Anthracnose on cucumber, 250 ppm spray, 6 to 10 days after inoculation): L (50% or less control value)
- Test D control value ([2]; Powdery mildew on barley, control value class): H (more than 50% control value)

SMILES: CCn1c(-c2ccc(Cl)cc2Cl)c(CC(C)C)cc(Br)c1=O [compound 140]
- Test A control value class (Magnaporthe grisea; Blast on rice): H (more than 50% control value)
- Test C control value class (Alternaia brassicicola; [3]): H (more than 50% control value)
- Test E control value class (Puccinia recondita; Brown rust on wheat): H (more than 50% control value)
- Test F control value class (Phytophthora infestans; Late blight on tomato): L (50% or less control value)
- Test B control value class (Botrytis cinerea; Gray mold on tomato): H (more than 50% control value)
- Test G control value class (Plasmopara viticola; 250 ppm spray): H (more than 50% control value)
- Test H control value class ([1]; 250 ppm spray): H (more than 50% control value)
- Test D control value class ([2]; Powdery mildew on barley): H (more than 50% control value)
